Consider one compound from paper PMC11610143, “Characterization of dipyridamole as a novel ferroptosis inhibitor and its therapeutic potential in acute respiratory distress syndrome management” (Theranostics, 2024).

One experiment concerns the target T1, SOD1 (A549 cells) (Homo sapiens, UniProt P00441).
T1 construct: endogenous full-length SOD1 in A549 cells, read by western blot
In words: CETSA, western blot. As to conditions: 10 μM DIPY, 30 min; A549 cells pretreated with RSL3 5 μM for 8 h; 45-72 °C. The class given is biochemical.

The target in experiment [1] is T2, human SOD1 protein (#HY-P71048, MCE) (Homo sapiens, UniProt P00441).
T2 construct: commercial human SOD1 protein (MCE); amine-coupled to CM5 chip
In words: SPR (Biacore T200, CM5 chip, SOD1 immobilised). Type of experiment: binding. In general terms: SPR reads the build-up and loss of mass on a sensor chip optically.

T2 sequence (P00441 2-154, one chain of several): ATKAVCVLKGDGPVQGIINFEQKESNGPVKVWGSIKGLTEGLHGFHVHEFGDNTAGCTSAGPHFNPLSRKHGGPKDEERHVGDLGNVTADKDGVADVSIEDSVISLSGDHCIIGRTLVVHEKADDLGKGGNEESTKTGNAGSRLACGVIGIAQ
T1 sequence (P00441 2-154): as the sequence (P00441 2-154, one chain of several) above

`OCCN(CCO)c1nc(N2CCCCC2)c2nc(N(CCO)CCO)nc(N3CCCCC3)c2n1` [Dipyridamole]: on SOD1 (A549 cells), the “thermal stability (CETSA)” value is given as “DIPY elevated the thermal stability of SOD1 compared with the control group”. The compound further gave a Kd in experiment [1] of 8.83 µM.

What is called Kd is the constant that tells how readily two partners part at equilibrium. Lower therefore signals a tighter complex.
